# Measurements reported in US20080269223A1, “Mouth Dissolvable and Meltable, and Water Dispersable Delivery Formulation” (priority 2004, published 2008).
# Like-named read-outs stand apart in the source and are kept apart here.
# Assays:
# [1] = cited from earlier work
# human plasma protein = settings: cited from earlier work
# [2] = Dissolution time of mannitol forms in water; assay type: physicochemical; settings: ratio 1:30 w/w with respect to water, 20° C.
# Procedure: The filler is mannitol, preferably a form of spray dried mannitol. […] Accordingly, α form of spray dried mannitol is most preferred in accordance to the present invention. The α-form of mannitol has mean particle size diameter of about 150 micron and Haussner number of about 1.16, having dissolution time in water with a ratio of 1:30 with respect to water in w/w, not more than 5 seconds at 20° C. […] When the dissolution time of the α-form of spray dried mannitol is compared with the standard and granulated mannitol, it gave following gradation:—
smiles,measurement,setting,value
"Nc1nnc(-c2cccc(Cl)c2Cl)c(N)n1 [Lamotrigine, 3,5-diamino-b-[2,3-dichlorophenyl]-1,2,4-triazine]",average half life,[1]; Lamotrigine alone,approximately 24 hours
same,effect of food on bioavailability,[1]; in vivo,not affected by food
same,half life,[1]; used concurrently with phenytoin,approximately 7.2 hours
same,half life,[1]; with Valproic Acid,approximately 59 hours
same,displacement of other anti-epileptic drugs from protein binding sites,"human plasma protein; carbamazepine, phenytoin, phenobarbitol",does not displace
same,bound to human plasma protein,human plasma protein,approximately 55%
"OCC(O)C(O)C(O)C(O)CO (stereo not drawn) [Spray dried α-mannitol, 1,2,3,4,5,6-hexanehexol]",dissolution time in water,[2],5 s
same,dissolution time in water,[2]; listed as α-form of mannitol,not more than 5 seconds
OC[C@@H](O)[C@@H](O)[C@H](O)[C@H](O)CO [granulated mannitol],dissolution time in water,[2],100 s
OC[C@@H](O)[C@@H](O)[C@H](O)[C@H](O)CO [standard mannitol],dissolution time in water,[2],35 s
